Data published in US20160009693A1, “HERBICIDAL COMPOUNDS” (SYNGENTA LIMITED, priority 2013, published 2016).

Assays:
Assay type in all cases: in vivo
Settings in all cases: applied at 1000 g/h, evaluated after 13 days
[1] = test system: Ipomoea hederacea (IPOHE); experiment: Herbicidal glasshouse test, pre-emergence, IPOHE
[2] = test system: Echinochloa crus-galli (ECHCG); experiment: Herbicidal glasshouse test, pre-emergence, ECHCG
Outline: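 In this pre-emergence glasshouse test, ECHCG seeds sown in pots of standard soil were sprayed one day after sowing with the test material in acetone/water (50:50) containing 0.5% Tween 20. Plants were kept at 24/16° C., 14 hours light, 65% humidity, and watered twice daily. Percentage damage was rated after 13 days on a 1–5 scale.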

[3] = test system: Alopecurus myosuroides (ALOMY); experiment: Herbicidal glasshouse test, pre-emergence, ALOMY
Solanum nigrum (SOLNI) [4] = experiment: Herbicidal glasshouse test, pre-emergence, SOLNI
Outline: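 This pre-emergence glasshouse herbicide test used Solanum nigrum sown in standard soil. One day after sowing, pots were sprayed with the compound in acetone/water (50:50) with 0.5% Tween 20. They were then grown at 24/16° C., with 14 hours light and 65% humidity, and watered twice daily. Percentage damage was scored after 13 days on a five point scale, where 5=80-100% and 1=0-19%.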

[5] = test system: Amaranthus retoflexus (AMARE); experiment: Herbicidal glasshouse test, post-emergence, AMARE
Outline: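 This post-emergence glasshouse test used AMARE plants raised in standard soil for 8 days under controlled conditions (24/16° C. day/night, 14 hours light, 65% humidity). Foliage was sprayed with formulated compound in acetone/water (50:50) containing 0.5% Tween 20. Plants were then watered twice daily, and after 13 days percentage damage was rated on a five point scale.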

Setaria faberi (SETFA) [6] = experiment: Herbicidal glasshouse test, pre-emergence, SETFA
[7] = test system: Echinochloa crus-galli (ECHCG); experiment: Herbicidal glasshouse test, post-emergence, ECHCG
Outline: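 In this post-emergence glasshouse test, barnyard grass (ECHCG) was cultivated for 8 days under controlled conditions (24/16° C. day/night, 14 hours light, 65% humidity). It was then sprayed with an aqueous solution of the technical compound in acetone / water (50:50) with 0.5% Tween 20. Plants were kept under the same conditions and watered twice daily. After 13 days, percentage damage was rated on a five point scale (5=80-100%; 1=0-19%).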

[8] = test system: Ipomoea hederacea (IPOHE); experiment: Herbicidal glasshouse test, post-emergence, IPOHE
Setaria faberi (SETFA) [9] = experiment: Herbicidal glasshouse test, post-emergence, SETFA
Outline: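 This post-emergence glasshouse herbicide test used potted Setaria faberi. Plants were cultivated for 8 days under controlled conditions (24/16° C. day/night, 14 hours light, 65% humidity) and then treated with an aqueous spray made from an acetone/water (50:50) solution containing 0.5% Tween 20. After 13 days of further growth with twice-daily watering, damage was rated on a five point scale (5=80-100%; 1=0-19%).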

[10] = test system: Amaranthus retoflexus (AMARE); experiment: Herbicidal glasshouse test, pre-emergence, AMARE
Outline: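 This pre-emergence glasshouse herbicide test used Amaranthus retoflexus sown in standard soil. After one day of cultivation, an aqueous spray made from the technical ingredient in 50:50 acetone/water with 0.5% Tween 20 was applied. Pots stayed at 24/16° C., 14 hours light, 65% humidity, with twice-daily watering. Damage was rated on a five point scale (1=0-19% up to 5=80-100%).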

Solanum nigrum (SOLNI) [11] = experiment: Herbicidal glasshouse test, post-emergence, SOLNI
[12] = test system: Alopecurus myosuroides (ALOMY); experiment: Herbicidal glasshouse test, post-emergence, ALOMY

SMILES	PRE Application IPOHE, percentage damage (five point scale) [1]	PRE Application ECHCG, percentage damage (five point scale) [2]	PRE Application ALOMY, percentage damage (five point scale) [3]	PRE Application SOLNI, percentage damage (five point scale) (Solanum nigrum (SOLNI) [4])	POST Application AMARE, percentage damage (five point scale) [5]	PRE Application SETFA, percentage damage (five point scale) (Setaria faberi (SETFA) [6])	POST Application ECHCG, percentage damage (five point scale) [7]	POST Application IPOHE, percentage damage (five point scale) [8]	POST Application SETFA, percentage damage (five point scale) (Setaria faberi (SETFA) [9])	PRE Application AMARE, percentage damage (five point scale) [10]	POST Application SOLNI, percentage damage (five point scale) (Solanum nigrum (SOLNI) [11])	POST Application ALOMY, percentage damage (five point scale) [12]
Cn1nnnc1NC(=O)c1nn(C)c(=O)n(Cc2ccc(SC(F)(F)F)cc2)c1=O [Compound 1.080]	5 (5=80-100%)	5 (5=80-100%)	5 (5=80-100%)	5 (5=80-100%)	5 (5=80-100%)	5 (5=80-100%)	4 (4=60-79%)	5 (5=80-100%)	5 (5=80-100%)	5 (5=80-100%)	5 (5=80-100%)	5 (5=80-100%)
C#CCn1c(=O)c(C(=O)Nc2nnnn2C)nn(C)c1=O [Compound 1.089]	5 (5=80-100%)	5 (5=80-100%)	5 (5=80-100%)	5 (5=80-100%)	5 (5=80-100%)	5 (5=80-100%)	5 (5=80-100%)	5 (5=80-100%)	5 (5=80-100%)	5 (5=80-100%)	5 (5=80-100%)	5 (5=80-100%)
Cc1ccc(-n2c(=O)c(C(=O)Nc3nnnn3C)nn(C)c2=O)cc1C [Compound 1.026]	5 (5=80-100%)	5 (5=80-100%)	5 (5=80-100%)	5 (5=80-100%)	5 (5=80-100%)	5 (5=80-100%)	5 (5=80-100%)	5 (5=80-100%)	5 (5=80-100%)	5 (5=80-100%)	5 (5=80-100%)	5 (5=80-100%)
Cn1nnnc1NC(=O)c1nn(C)c(=O)n(-c2ccc(Br)cc2)c1=O [Compound 1.027]	5 (5=80-100%)	5 (5=80-100%)	5 (5=80-100%)	5 (5=80-100%)	5 (5=80-100%)	5 (5=80-100%)	5 (5=80-100%)	5 (5=80-100%)	5 (5=80-100%)	5 (5=80-100%)	5 (5=80-100%)	5 (5=80-100%)
Cn1ncnc1NC(=O)c1cn(C)c(=O)n(-c2ccccc2)c1=O [Compound 2.003]	5 (5=80-100%)	1 (1=0-19%)	1 (1=0-19%)	4 (4=60-79%)	1 (1=0-19%)	3 (3=40-59%)	1 (1=0-19%)	2 (2=20-39%)	1 (1=0-19%)	2 (2=20-39%)	2 (2=20-39%)	1 (1=0-19%)
CC(C)Cn1c(=O)c(C(=O)Nc2nnnn2C)nn(C)c1=O [Compound 1.005]	4 (4=60-79%)	5 (5=80-100%)	5 (5=80-100%)	5 (5=80-100%)	5 (5=80-100%)	5 (5=80-100%)	5 (5=80-100%)	5 (5=80-100%)	5 (5=80-100%)	5 (5=80-100%)	5 (5=80-100%)	5 (5=80-100%)
Cn1nnnc1NC(=O)c1nn(C)c(=O)n(Cc2ccc(F)cc2F)c1=O [Compound 1.055]	5 (5=80-100%)	5 (5=80-100%)	5 (5=80-100%)	5 (5=80-100%)	5 (5=80-100%)	1 (1=0-19%)	4 (4=60-79%)	5 (5=80-100%)	1 (1=0-19%)	5 (5=80-100%)	5 (5=80-100%)	5 (5=80-100%)
